Assay results as given in patent publication US9908886B2 (Agency for Science, Technology and Research, priority 2012, dated 2018).

Legend:
[1] = target: MNK1 (Homo sapiens, UniProt Q9BUB5); assay: In vitro MNK kinase assay (Caliper LabChip mobility shift); format: biochemical; details: enzymatic, 1.2 mM ATP; read-out: IC50 Mnk1
[2] = target: MNK2 (Homo sapiens (Human), UniProt Q9HBH9); assay: as above; format: biochemical; details: enzymatic, 250 μM ATP; read-out: IC50 Mnk2
MNK2, sequence (Q9HBH9 84-388): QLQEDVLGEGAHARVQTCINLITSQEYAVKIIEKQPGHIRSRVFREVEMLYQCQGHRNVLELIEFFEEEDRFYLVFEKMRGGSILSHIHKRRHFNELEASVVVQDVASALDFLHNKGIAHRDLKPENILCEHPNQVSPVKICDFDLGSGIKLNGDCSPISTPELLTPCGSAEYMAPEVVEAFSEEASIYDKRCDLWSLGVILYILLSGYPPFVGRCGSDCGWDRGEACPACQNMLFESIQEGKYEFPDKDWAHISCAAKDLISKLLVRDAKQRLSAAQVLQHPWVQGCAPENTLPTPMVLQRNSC

Work on N#Cc1ccc(-c2cnc3ccc(-c4ccc(C(=O)N5CCNCC5)cc4)nn23)cc1 [Example 65, 4-(6-(4-(piperazine-1-carbonyl)phenyl)imidazo[1,2-b]pyridazin-3-yl)benzonitrile] yielded an IC50 [1] of less than 0.1 µM and an IC50 [2] of less than 0.1 µM.

For CCC1(NC(C)=O)CCN(C(=O)c2ccc(-c3ccc4ncc(-c5ccc(C#N)cc5)n4n3)cc2)CC1 [Example 66, N-(1-(4-(3-(4-cyanophenyl)imidazo[1,2-b]pyridazin-6-yl)benzoyl)-4-ethylpiperidin-4-yl)acetamide], the IC50 [1] was less than 0.1 µM and the IC50 [2] was less than 0.1 µM.

N#Cc1ccc(-c2cnc3ccc(-c4ccc(C(=O)N5CCNC(=O)C5)cc4)nn23)cc1 [Example 68, 4-(6-(4-(3-oxopiperazine-1-carbonyl)phenyl)imidazo[1,2-b]pyridazin-3-yl)benzonitrile] gave an IC50 [1] of less than 0.1 µM and an IC50 [2] of less than 0.1 µM.

For CN1CCN(C(=O)c2ccc(-c3ccc4ncc(-c5ccc(C#N)cc5)n4n3)cc2)CC1=O [Example 69, 4-(6-(4-(4-methyl-3-oxopiperazine-1-carbonyl)phenyl)imidazo[1,2-b]pyridazin-3-yl)benzonitrile], the IC50 [1] was less than 0.1 µM and the IC50 [2] was less than 0.1 µM.

Compound CN1CCN(C2CCN(C(=O)c3ccc(-c4ccc5ncc(-c6ccc(C#N)cc6)n5n4)cc3)CC2)CC1 [Example 70, 4-(6-(4-(4-(4-methylpiperazin-1-yl)piperidine-1-carbonyl)phenyl)imidazo[1,2-b]pyridazin-3-yl)benzonitrile] has an IC50 [1] of less than 0.1 µM and an IC50 [2] of less than 0.1 µM.

Work on N#Cc1ccc(-c2cnc3ccc(-c4ccc(C(=O)N5CCC6(CCCCN6)CC5)cc4)nn23)cc1 [Example 71, 4-(6-(4-(1,9-diazaspiro[5.5]undecane-9-carbonyl)phenyl)imidazo[1,2-b]pyridazin-3-yl)benzonitrile] yielded an IC50 [1] of less than 0.1 µM and an IC50 [2] of less than 0.1 µM.

CN1CCN(C(=O)c2ccc(-c3ccc4ncc(-c5ccc(C#N)cc5)n4n3)cc2Cl)CC1 [Example 72, 4-(6-(3-chloro-4-(4-methylpiperazine-1-carbonyl)phenyl)imidazo[1,2-b]pyridazin-3-yl)benzonitrile] gave an IC50 [1] of less than 0.1 µM and an IC50 [2] of less than 0.1 µM.

In the case of CN1CCN(C(=O)c2ccc(-c3ccc4ncc(-c5ccc(C#N)cc5)n4n3)cc2F)CC1 [Example 73, 4-(6-(3-fluoro-4-(4-methylpiperazine-1-carbonyl)phenyl)imidazo[1,2-b]pyridazin-3-yl)benzonitrile], the IC50 [1] is reported as less than 0.1 µM and the IC50 [2] is reported as less than 0.1 µM.

Cc1cc(-c2ccc3ncc(-c4ccc(C#N)cc4)n3n2)ccc1C(=O)N1CCN(C)CC1 [Example 74, 4-(6-(3-methyl-4-(4-methylpiperazine-1-carbonyl)phenyl)imidazo[1,2-b]pyridazin-3-yl)benzonitrile] showed an IC50 [1] of less than 0.1 µM and an IC50 [2] of less than 0.1 µM.

Work on COc1cc(C(=O)N2CCN(C)CC2)ccc1-c1ccc2ncc(-c3ccc(C#N)cc3)n2n1 [Example 78, 4-(6-(2-methoxy-4-(4-methylpiperazine-1-carbonyl)phenyl)imidazo[1,2-b]pyridazin-3-yl)benzonitrile] yielded an IC50 [1] of less than 0.1 µM and an IC50 [2] of less than 0.1 µM.

For CN1CCN(C(=O)c2ccc(-c3ccc4ncc(-c5ccc(C#N)cc5)n4n3)cc2[N+](=O)[O-])CC1 [Example 79, 4-(6-(4-(4-methylpiperazine-1-carbonyl)-3-nitrophenyl)imidazo[1,2-b]pyridazin-3-yl)benzonitrile], the IC50 [1] was less than 0.1 µM and the IC50 [2] was less than 0.1 µM.

For CC(=O)Nc1cc(-c2ccc3ncc(-c4ccc(C#N)cc4)n3n2)ccc1C(=O)N1CCC(N(C)C)CC1 [Example 81, N-(5-(3-(4-cyanophenyl)imidazo[1,2-b]pyridazin-6-yl)-2-(4-(dimethylamino)piperidine-1-carbonyl)phenyl)acetamide], the IC50 [1] was less than 0.1 µM and the IC50 [2] was less than 0.1 µM.

CN1CCN(C(=O)c2ccc(-c3ccc4ncc(-c5ccc6c(c5)CC(=O)N6)n4n3)cc2)CC1 [Example 85, 5-(6-(4-(4-methylpiperazine-1-carbonyl)phenyl)imidazo[1,2-b]pyridazin-3-yl)indolin-2-one] showed an IC50 [1] of less than 0.1 µM and an IC50 [2] of less than 0.1 µM.

Work on CN1CCN(C(=O)c2ccc(-c3ccc4ncc(-c5ccc6[nH]ncc6c5)n4n3)cc2)CC1 [Example 86, (4-(3-(1H-indazol-5-yl)imidazo[1,2-b]pyridazin-6-yl)phenyl)(4-methylpiperazin-1-yl)methanone] yielded an IC50 [1] of less than 0.1 µM and an IC50 [2] of less than 0.1 µM.

CN1CCN(C(=O)c2ccc(-c3ccc4ncc(-c5ccc6[nH]cnc6c5)n4n3)cc2)CC1 [Example 87, (4-(3-(1H-benzo[d]imidazol-5-yl)imidazo[1,2-b]pyridazin-6-yl)phenyl)(4-methylpiperazin-1-yl)methanone] was tested, and the IC50 [1] was less than 0.1 µM and the IC50 [2] was less than 0.1 µM.

CN1CCN(C2CCN(C(=O)c3ccc(-c4ccc5ncc(-c6ccc7c(c6)CC(=O)N7)n5n4)cc3)CC2)CC1 [Example 89, 5-(6-(4-(4-(4-methylpiperazin-1-yl)piperidine-1-carbonyl)phenyl)imidazol[1,2-b]pyridazin-3-yl)indolin-2-one] was tested, and the IC50 [1] was less than 0.1 µM and the IC50 [2] was less than 0.1 µM.

Work on O=C1Cc2cc(-c3cnc4ccc(-c5ccc(C(=O)N6CCC(N7CCOCC7)CC6)cc5)nn34)ccc2N1 [Example 94, 5-(6-(4-(4-morpholinopiperidine-1-carbonyl)phenyl)imidazo[1,2-b]pyridazin-3-yl)indolin-2-one] yielded an IC50 [1] of less than 0.1 µM and an IC50 [2] of less than 0.1 µM.

Work on CN1CCN(C(=O)c2ccc(-c3ccc4ncc(-c5ccc(C#N)cc5)n4c3)cc2)CC1 [Example 95, 4-(6-(4-(4-Methylpiperazine-1-carbonyl)phenyl)imidazo[1,2-a]pyridin-3-yl)benzonitrile] yielded an IC50 [1] of less than 0.1 µM and an IC50 [2] of less than 0.1 µM.

N#Cc1ccc(-c2cnc3ccc(-c4ccc(C(=O)N5CCCOCC5)cc4)cn23)cc1 [Example 97] showed an IC50 [1] of less than 0.1 µM and an IC50 [2] of less than 0.1 µM.

For CCN1CCN(C(=O)c2ccc(-c3ccc4ncc(-c5ccc(C#N)cc5)n4c3)cc2)CC1 [Example 98, 4-(6-(4-(4-ethylpiperazine-1-carbonyl)phenyl)imidazo[1,2-a]pyridin-3-yl)benzonitrile], the IC50 [1] was less than 0.1 µM and the IC50 [2] was less than 0.1 µM.

In the case of CC(=O)NC1(C)CCN(C(=O)c2ccc(-c3ccc4ncc(-c5ccc(C#N)cc5)n4c3)cc2)CC1 [Example 99, N-(1-(4-(3-(4-cyanophenyl)imidazo[1,2-a]pyridin-6-yl)benzoyl)-4-methylpiperidin-4-yl)acetamide], the IC50 [1] is reported as less than 0.1 µM and the IC50 [2] is reported as less than 0.1 µM.

CCN(CC)C1(C)CCN(C(=O)c2ccc(-c3ccc4ncc(-c5ccc(C#N)cc5)n4c3)cc2)CC1 [Example 100, 4-(6-(4-(4-(diethylamino)-4-methylpiperidine-1-carbonyl)phenyl)imidazo[1,2-a]pyridin-3-yl)benzonitrile] gave an IC50 [1] of less than 0.1 µM and an IC50 [2] of less than 0.1 µM.

In the case of CN(CC(=O)N1CCOCC1)C(=O)c1ccc(-c2ccc3ncc(-c4ccc(C#N)cc4)n3c2)cc1 [Example 101, 4-(3-(4-cyanophenyl)imidazo[1,2-a]pyridin-6-yl)-N-methyl-N-(2-morpholino-2-oxoethyl)benzamide], the IC50 [1] is reported as less than 0.1 µM and the IC50 [2] is reported as less than 0.1 µM.

N#Cc1ccc(-c2cnc3ccc(-c4ccc(C(=O)N5CCNC(=O)C5)cc4)cn23)cc1 [Example 102, 4-(6-(4-(3-oxopiperazine-1-carbonyl)phenyl)imidazo[1,2-a]pyridin-3-yl)benzonitrile] showed an IC50 [1] of less than 0.1 µM and an IC50 [2] of less than 0.1 µM.
